Legend:
[1] = target: T1, human recombinant SSAO/VAP-1 (Homo sapiens, UniProt Q16853); assay: Inhibition of human recombinant SSAO/VAP-1 (Amplex Red fluorometric assay); type: biochemical; conditions: 30 min incubation, 37° C., benzylamine substrate
T1 construct: a cloned cDNA template corresponding to residues 34-763 of human SSAO/VAP-1; TEV cleavage site (N); made in house
T1 sequence (Q16853 34-763): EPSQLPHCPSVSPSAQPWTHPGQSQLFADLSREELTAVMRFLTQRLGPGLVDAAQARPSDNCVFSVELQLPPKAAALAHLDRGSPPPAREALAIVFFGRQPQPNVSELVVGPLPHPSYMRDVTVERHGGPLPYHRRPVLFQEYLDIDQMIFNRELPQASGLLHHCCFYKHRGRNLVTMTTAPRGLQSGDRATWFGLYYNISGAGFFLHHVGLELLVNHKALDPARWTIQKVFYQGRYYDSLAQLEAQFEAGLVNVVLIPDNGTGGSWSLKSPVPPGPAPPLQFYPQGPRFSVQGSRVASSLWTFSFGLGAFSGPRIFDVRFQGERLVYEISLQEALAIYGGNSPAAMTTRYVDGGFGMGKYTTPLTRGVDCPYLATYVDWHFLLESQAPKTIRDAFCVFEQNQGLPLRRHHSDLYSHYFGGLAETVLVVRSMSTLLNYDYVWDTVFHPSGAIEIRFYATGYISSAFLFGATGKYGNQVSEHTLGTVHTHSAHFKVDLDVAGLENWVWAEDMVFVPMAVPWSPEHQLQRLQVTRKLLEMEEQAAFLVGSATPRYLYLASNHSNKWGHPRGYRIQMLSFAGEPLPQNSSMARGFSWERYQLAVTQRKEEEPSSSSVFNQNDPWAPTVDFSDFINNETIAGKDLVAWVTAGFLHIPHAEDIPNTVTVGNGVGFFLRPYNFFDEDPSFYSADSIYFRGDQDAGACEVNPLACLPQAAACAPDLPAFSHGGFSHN
Method: Method to Determine the Ability of Compounds of Formula I to Inhibit Human Recombinant SSAO/VAP-1
Human recombinant SSAO/VAP-1 amine oxidase activity was determined using the method as described for monoamine oxidase, copper-containing amine oxidases and related enzymes (Holt A. and Palcic M., Nat. Protoc. 2006, 1, 2498-2505). Briefly, a cloned cDNA template corresponding to residues 34-763 of human SSAO/VAP-1, and incorporating a mouse Ig kappa (κ) signal sequence, N-terminal flag epitope tag and tobacco etch virus (TEV) cleavage site, was assembled in a mammalian expression vector (pLO-CMV) by Geneart AG. This vector containing human SSAO/VAP-1 residues was transfected into CHO-K1 glycosylation mutant cell line, Lec 8. A clone stably expressing human SSAO/VAP-1 was isolated and cultured in large scale. Active human SSAO/VAP-1 was purified and recovered using immunoaffinity chromatography. This was used as the source for SSAO/VAP-1 activity. A high-throughput colorimetric assay was developed using either 96 or 384 well format. Briefly, in a standard 96 well plate assay 50 μL of purified human SSAO/VAP-1 (0.25 μg/mL) in 0.1 M sodium phosphate buffer (pH 7.4) was added into each well. […] After 30 min incubation, 50 μL of the reaction mixture containing 600 μM benzylamine (Sigma Aldrich), 120 μM Amplex Red (Sigma Aldrich) and 1.5 U/mL horseradish peroxidase (Sigma Aldrich) prepared in 0.1 M sodium phosphate buffer (pH 7.4) were added to the corresponding well. The fluorescence unit (RFU) was read every 2.5 min for 30 min at 37° C. excitation 565 nm and emission 590 nm (Optima; BMG labtech). The slope of the kinetics for each well was calculated using MARS data analysis software (BMG labtech) and this value was used to deduce the IC50 value (Dotmatics).

Recombinant human MAO-B = target: T2, Recombinant human MAO-B (Homo sapiens, UniProt P27338); assay: Inhibition of human recombinant MAO-B; type: biochemical; conditions: incubation time of 2 hours, benzylamine 100 μM
T2 construct: purchased Sigma Aldrich
T2 sequence (P27338 1-520): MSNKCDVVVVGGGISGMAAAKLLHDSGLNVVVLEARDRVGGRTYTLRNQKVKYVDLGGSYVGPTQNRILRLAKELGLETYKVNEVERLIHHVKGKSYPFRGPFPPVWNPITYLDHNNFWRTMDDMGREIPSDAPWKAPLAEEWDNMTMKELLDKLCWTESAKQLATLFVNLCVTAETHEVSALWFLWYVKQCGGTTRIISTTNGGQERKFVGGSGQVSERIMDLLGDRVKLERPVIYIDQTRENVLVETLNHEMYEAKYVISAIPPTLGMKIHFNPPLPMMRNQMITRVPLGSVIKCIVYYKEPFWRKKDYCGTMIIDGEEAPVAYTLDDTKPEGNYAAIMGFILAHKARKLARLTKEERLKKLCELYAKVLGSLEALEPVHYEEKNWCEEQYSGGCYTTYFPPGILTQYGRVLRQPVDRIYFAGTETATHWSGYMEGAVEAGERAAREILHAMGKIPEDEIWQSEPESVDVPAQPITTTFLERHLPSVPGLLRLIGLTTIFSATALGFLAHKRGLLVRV
Method: Method to Determine the Ability of Compounds of Formula I to Inhibit Human Recombinant MAO-B
The ability of the compounds of this invention to inhibit MAO-B activities in vitro was tested. Recombinant human MAO-B (0.06 mg/mL; Sigma Aldrich) was used as source of MAO-B enzyme activities.

recombinant human MAO-A = target: T3, recombinant human MAO-A (Homo sapiens, UniProt P21397); assay: Inhibition of human recombinant MAO-A; type: biochemical; conditions: incubation time of 2 hours, tyramine 100 μM
T3 construct: purchased Sigma Aldrich
T3 sequence (P21397 1-527): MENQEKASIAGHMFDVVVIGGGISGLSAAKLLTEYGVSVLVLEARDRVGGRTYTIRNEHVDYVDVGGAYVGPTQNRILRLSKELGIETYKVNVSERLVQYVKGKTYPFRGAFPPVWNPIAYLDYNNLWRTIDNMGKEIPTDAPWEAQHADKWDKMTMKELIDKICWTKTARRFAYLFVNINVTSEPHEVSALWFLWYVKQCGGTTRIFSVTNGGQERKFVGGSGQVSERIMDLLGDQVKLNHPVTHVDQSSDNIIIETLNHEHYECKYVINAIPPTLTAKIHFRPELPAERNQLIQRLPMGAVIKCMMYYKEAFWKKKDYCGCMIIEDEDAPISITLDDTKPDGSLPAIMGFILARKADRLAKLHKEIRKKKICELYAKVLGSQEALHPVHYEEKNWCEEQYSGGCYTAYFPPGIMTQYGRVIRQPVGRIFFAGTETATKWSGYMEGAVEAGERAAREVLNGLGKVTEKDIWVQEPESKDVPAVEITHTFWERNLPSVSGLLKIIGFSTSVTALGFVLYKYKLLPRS
Method: Method to Determine the Ability of Compounds of Formula I to Inhibit Human Recombinant MAO-A
The selectivity of the compounds of this invention was tested by determining their ability to inhibit MAO-A activity in vitro, using recombinant human MAO-A (0.003 mg/mL; Sigma Aldrich). The assay was performed in a similar way as for human SSAO/VAP-1 (EXAMPLE 9) except, the substrate tyramine was used at 100 μM in place of benzylamine and the assay was run after an incubation time of 2 hours.

[2] = system: Myogenic cell cultures from both mdx mice and DMD patients; conditions: in vitro; cited from earlier work
mdx mice = conditions: 3-month old mdx mice, Vitiello L. et al. 2018; cited from earlier work

## COc1ccc(OC/C(=C\F)CN)cc1 [Compound 14]
[1]
  IC50: < 10 nM
Recombinant human MAO-B
  IC50: < 50 nM
Recombinant human MAO-A
  IC50: 300 to 3000 nM

## N#Cc1ccc(OC/C(=C/F)CN)cc1Br [Compound 3, (E)-4-((2-(aminomethyl)-3-fluoroallyl)oxy)-2-bromobenzonitrile]
[1]
  IC50: < 10 nM
Recombinant human MAO-B
  IC50: < 50 nM
Recombinant human MAO-A
  IC50: 3000 to 30000 nM

## N#Cc1ccc(OC/C(=C\F)CN)cc1 [Compound 6]
[1]
  IC50: < 10 nM
Recombinant human MAO-B
  IC50: < 50 nM
Recombinant human MAO-A
  IC50: 300 to 3000 nM

## C[C@H](NCc1ccc(OCc2cccc(F)c2)cc1)C(N)=O [safinamide]
[2]
  susceptibility (sensitivity) to oxidative stress: abrogated
Mdx mice
  myofiber damage, oxidative stress and muscle function: reduced myofiber damage and oxidative stress, and improved muscle function

## NC/C(=C\F)COc1ccc(C(F)(F)F)cc1 [Compound 11]
[1]
  IC50: < 10 nM
Recombinant human MAO-B
  IC50: < 50 nM
Recombinant human MAO-A
  IC50: 3000 to 30000 nM

## CS(=O)(=O)c1ccc(OC/C(=C/F)CN)cc1 [Compound 12]
[1]
  IC50: < 10 nM
Recombinant human MAO-B
  IC50: > 1000 nM
Recombinant human MAO-A
  IC50: > 30000 nM

## COc1cc(OC/C(=C/F)CN)ccc1C#N [Compound 7]
[1]
  IC50: 10 to 500 nM
Recombinant human MAO-B
  IC50: 50 to 500 nM
Recombinant human MAO-A
  IC50: > 30000 nM

## N#Cc1cccc(OC/C(=C/F)CN)c1 [Compound 9]
[1]
  IC50: < 10 nM
Recombinant human MAO-B
  IC50: < 50 nM
Recombinant human MAO-A
  IC50: 300 to 3000 nM

## Cc1cc(OC/C(=C/F)CN)ccc1C#N [Compound 5, (E)-4-((2-(aminomethyl)-3-fluoroallyl)oxy)-2-methylbenzonitrile]
[1]
  IC50: < 10 nM
Recombinant human MAO-B
  IC50: < 50 nM
Recombinant human MAO-A
  IC50: 3000 to 30000 nM

## N#Cc1ccc(OC/C(=C/F)CN)cc1F [Compound 2, (E)-4-((2-(aminomethyl)-3-fluoroallyl)oxy)-2-fluorobenzonitrile]
[1]
  IC50: < 10 nM
Recombinant human MAO-B
  IC50: < 50 nM
Recombinant human MAO-A
  IC50: > 30000 nM

## N#Cc1ccc(OC/C(=C/F)CN)c(F)c1 [Compound 4, (E)-4-((2-(aminomethyl)-3-fluoroallyl)oxy)-3-fluorobenzonitrile]
[1]
  IC50: < 10 nM
Recombinant human MAO-B
  IC50: < 50 nM
Recombinant human MAO-A
  IC50: 3000 to 30000 nM

## NC/C(=C\F)COc1ccc(OC(F)(F)F)cc1 [Compound 13]
[1]
  IC50: < 10 nM
Recombinant human MAO-B
  IC50: < 50 nM
Recombinant human MAO-A
  IC50: < 300 nM

## NC/C(=C\F)COc1ccccc1 [Compound 10]
[1]
  IC50: 10 to 500 nM
Recombinant human MAO-B
  IC50: < 50 nM
Recombinant human MAO-A
  IC50: 300 to 3000 nM

## N#Cc1ccccc1OC/C(=C/F)CN [Compound 8]
[1]
  IC50: > 1000 nM
Recombinant human MAO-B
  IC50: < 50 nM
Recombinant human MAO-A
  IC50: < 300 nM
